Test results reported in US20250339445A1, “Modulators of Orphan Nuclear Receptors for Treating Pancreatitis, Glioblastoma, Sarcopenia and Stroke” (Emory University, priority 2020, published 2025).

Assays:
RORα = target: T1, RORα (Homo sapiens, UniProt P35398); test: RORα activity by luciferase reporter (miR-122 promoter) in Huh-7 cells; type: cell-based; design: MIR122 promoter activity compared with SR1078: dose or concentration left out as unconfirmed; conditions: wild type and mutant RORA
T1 construct: endogenous in cells; host or cells: Huh-7 (Huh7) human hepatocellular carcinoma cells
T1 sequence (P35398 1-523): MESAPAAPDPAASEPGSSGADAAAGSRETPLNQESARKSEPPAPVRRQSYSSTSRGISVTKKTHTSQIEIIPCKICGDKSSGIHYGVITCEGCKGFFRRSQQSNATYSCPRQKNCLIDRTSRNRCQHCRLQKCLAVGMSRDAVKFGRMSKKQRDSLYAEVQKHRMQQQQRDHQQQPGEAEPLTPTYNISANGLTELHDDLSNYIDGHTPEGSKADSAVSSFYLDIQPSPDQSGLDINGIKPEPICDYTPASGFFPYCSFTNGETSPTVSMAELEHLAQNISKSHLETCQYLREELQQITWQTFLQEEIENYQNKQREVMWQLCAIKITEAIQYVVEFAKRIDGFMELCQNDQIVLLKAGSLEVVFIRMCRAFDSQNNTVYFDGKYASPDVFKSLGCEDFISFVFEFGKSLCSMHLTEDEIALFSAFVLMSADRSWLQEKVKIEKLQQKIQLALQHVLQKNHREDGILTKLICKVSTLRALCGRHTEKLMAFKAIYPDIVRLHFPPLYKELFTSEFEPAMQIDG
Description: Huh-7 cells were transfected with a luciferase reporter plasmid containing the miR-122 promoter (extends to −900 from the transcription start site) with intact wild-type (WT) RORα response element (RORE) or mutated RORE (mut). The cells were treated with Compound 1 one day (24 hours) post-transfection at the indicated concentrations. Luciferase expression was measured after 24 hours of treatment and normalized to Renilla Luciferase activity expressed from a co-transfected pRL plasmid. The pRL Vector, which provides constitutive expression of Renilla luciferase, was used in combination with a firefly luciferase vector to co-transfect cells. Expression of Renilla luciferase provides an internal control value to which expression of the experimental firefly luciferase reporter gene may be normalized.
Luciferase assay. For Luciferase assays, cells grown in 24 well plates were co-transfected with a luciferase reporter plasmid (50 ng) and 1 ng of Renilla Luciferase vector (PRL, Promega) using the TransIT-LT 1 (Mirus) transfection reagent (MIR 2300, Madison, WI). Firefly and Renilla luciferase activity was assessed using the Dual Luciferase Reporter Assay system (Promega). Readings were taken in triplicates on a Mithras LB 940 Luminometer (Berthold Technologies). […]
(§1) Following transfections, the cells were lysed with passive lysis buffer (Cat #E1941; Promega), shaking for 20 min at RT and transferred into appropriate 96-well plate. Firefly and Renilla luciferase activity was assessed using the Dual Luciferase Reporter Assay system (Cat #E1910; Promega) on a luminometer Mithras 2000 (Centro XZ, LB960, Berthold Technologies, Bad Wildbad, Germany). […] Readings were taken in triplicate.
as §1, with “room temperature (RT)” for “RT”, “into the” for “into”, “triplicates. […]” for “triplicate.”
After transfections, the cells were lysed with passive lysis buffer (catalog no. E1941, Promega), shaken for 20 minutes at room temperature, and transferred into the appropriate 96-well plate. Firefly and Renilla luciferase activity was assessed using the Dual Luciferase Reporter Assay system (catalog no. E1910, Promega) on a luminometer Mithras 2000 (Centro XZ, LB960; Berthold Technologies, Bad Wildbad, Germany). […] Readings were taken in triplicate.

FGF21 = FGF21 mRNA expression in 266-6 murine acinar cells (RT-qPCR); type: cell-based; conditions: 266-6 cells
Description: Using one of these models, RT-qPCR analysis of FFG21 mRNA expression was performed in 266-6 murine acinar cells after 6 hours treatment of DMSO/different doses of SR1078 (commercial ROR-α agonist). The statistical significance was calculated relative to DMSO and was determined by Student's t test (two-tailed). Values in graphs are mean±SD. *p<0.05, **p<0.01, ***p<0.001, ****p<0.0001.

[1] = tested on: peripheral and the central benzodiazepine receptors; conditions: prediction later experimentally proven; cited from earlier work
[2] = tested on: high-fat-fed C57BL/6 mice; test: High-fat-diet-fed C57BL/6 mice treated with Compound 1 and/or antagomiR-122; type: in vivo; conditions: 50% HFD; Compound 1 7.5 mg/kg i.p. twice a week, antagomiR once a week, 3 weeks
Description: C57BL/6 mice were fed a 50% high fat diet (HFD) for four weeks. The control cohort received three hydrodynamic tail vein injections of a 5 μg antagomiR-control and six i.p injections of saline over three weeks. A second cohort was hydrodynamic tail vein injected with 5 μg antagomiR-122 (the reverse complement that inhibits activity of miR-122) three times and i.p injections of saline six times over three weeks. A third cohort was injected i.p. with Compound 1 (7.5 mg/kg) twice a week plus antagomiR-control once a week over the course of 3 weeks. The final cohort was injected i.p. with Compound 1 (7.5 mg/kg) twice a week plus antagomiR-122 injections once a week over the course of 3 weeks.
Male C57BL/6J mice, 7 to 8 weeks old, were housed randomly in standard cages and were fed a HFD, or atherogenic diet (consisting 1% Chol and 0.5% cholic acid, see also Table 6). All mice had free access to water during the experimental period. During the feeding period body weight was monitored every 3 days. In the HFD experiment, after 4 or 6 weeks, the resultant obese mice were treated with antagomiR-122 (5 μg/mouse once a week for 3 weeks), or i.p. injected with Compound 1 (RORα agonist, 7.5 mg/kg twice a week for 3 weeks; or 15 mg/kg 3 times a week for 3 weeks). The obese control (HFD) group was administered only saline with DMSO and antagomiR-control. After 3 weeks of treatment mice were sacrificed and livers were taken for RNA-seq analysis. Livers, white adipose, and skeletal muscle tissues were frozen in liquid nitrogen or in optimum cutting temperature embedded frozen blocks, for further RNA and histologic analysis. In the atherogenic diet experiment mice were treated with 15 mg/kg Compound 1 after 3 weeks with the diet. After 3.5 weeks of treatment, mice were sacrificed, and the livers were frozen in liquid nitrogen or in optimum cutting temperature embedded frozen blocks. Plasma was collected from atherogenic diet-fed mice and saved in −20° C. for ALT and AST analysis using the Reflotron® Analyzer and test-strips (Roche).
In the HFD experiment, after 4 or 6 weeks, the resultant obese mice were treated with antagoMIR122 (5 μg/mouse once a week for 3 weeks), or i.p. injected with Compound 1 (RORα agonist, 7.5 mg/kg twice a week for 3 weeks; or 15 mg/kg 3 times a week for 3 weeks). The obese control (HFD) group was administered only saline with DMSO and antagomiR-control.
Mice were fed with a 50% HFD and after 4 weeks, when fatty liver was already established, they were treated with Compound 1, antagoMIR122 or both compounds together for an additional 3 weeks. […] The weighing of mice began at week 3, one week before treatments were initiated. […] The liver weight of the mice was in accordance with their body weight.

MIR122 = test: AntagoMIR122 treatment of chow or HFD fed mice; type: in vivo, C57BL/6 mice; conditions: for MIR122 levels in plasma, liver and white adipose tissue: hydrodynamic tail vein injection, 5 μg/mouse once a week
Description: C57BL/6 mice, 7 to 8 weeks old, were fed chow or 50% HFD, consisting of 50% Fat, 20% Sucrose, 10% Fructose, 1.25% Chol) (Envigo, TD.150235) for 4 weeks. In experiments of miR-122 repression by antagomiR, mice were hydrodynamic tail vain injected with antagomiR-122 or antagomiR-control (5 μg/mouse in 1.5 mL saline) once a week for 4 weeks and were still fed HFD or chow diet. After 4 weeks of injections mice were sacrificed and the livers, white adipose, and skeletal muscle tissues were frozen in liquid nitrogen or in optimum cutting temperature embedded frozen blocks, for further RNA and histologic analysis. AntagomiRs were obtained from Sigma-Aldrich (St Louis, MO); see Table 5.
C57BL/6 mice, 7 to 8 weeks old, were fed chow or 50% HFD, consisting of 50% Fat, 20% Sucrose, 10% Fructose, 1.25% Cholesterol) (Envigo, TD.150235) for 4 weeks. In experiments of MIR122 repression by antagomiR, mice were hydrodynamic tail vain injected with antagoMIR122 or antagomiR-control (5 μg/mouse in 1.5 mL saline) once a week for 3 weeks and were still fed HFD or chow diet. After 3 weeks of injections mice were sacrificed and the livers, gonadal white adipose, and skeletal muscle tissues were frozen in liquid nitrogen or in optimum cutting temperature embedded frozen blocks, for further RNA and histologic analysis. AntagomiRs were obtained from Sigma-Aldrich (St Louis, MO).

O=C1Nc2cc(C(=O)N3CCC(Cc4ccccc4)CC3)ccc2Nc2ccccc21 [Compound 68]
MIR122 promoter activity compared with SR1078 (RORα): more potent than the commercial synthetic RORA agonist SR1078

O=C(Nc1ccc(C(O)(C(F)(F)F)C(F)(F)F)cc1)c1ccc(C(F)(F)F)cc1 [SR1078]
Fgf21 expression in acinar cells (FGF21; 6 hours treatment): increases Fgf21 expression | Concentration of optimal effect on Fgf21 expression (FGF21; 6 hours, effect decreasing at 20 and 40 μM): 10 micromolar (μM)

CC(C)=CCC/C(C)=C/CC/C(C)=C/CN1C(=O)c2cccc(O)c2Nc2c(O)cc(O)cc21 [Diazepinomicin]
Predicted CNS activity (Gourdeau et al. 2008) [1]: predicted to be CNS inactive

antagomiR-122: MIR122 antagonist; 2′-O Me-modified, phosphorothioate, cholesterol-linked reverse complement that inhibits activity of miR-122 (antisense ACAAACACCAUUGUCACACUCCA; all 2'-O-methyl, backbone not given here; phosphorothioate linkages and cholesterol conjugate, further chemistry not fully specified)
Body weight [2]: highest increase in weight | Mice weight (MIR122; HFD mice): increased significantly | Liver fat droplets, total TG liver content and muscle TG levels (MIR122; HFD-fed mice): increase | MIR122 levels in plasma, liver and white adipose tissue (MIR122): significantly reduced | MIR122 levels in plasma, liver and white adipose tissue (MIR122; listed as antagoMIR122): reduced significantly
